Laboratory results as given in patent publication US20250163038A1, “CBL-B MODULATORS AND USES THEREOF” (Nimbus Clio, Inc., priority 2021, published 2025).

Key:
[1] = target: T1, Recombinant human c-Cbl (aa 47-435) (Homo sapiens, UniProt P22681); assay: c-Cbl Biochemical Assay (TR-FRET); conditions: hc-Cbl Biochemical Assay (TR-FRET); read-out: TR-FRET hcCbl IC50
T1 sequence (P22681 47-435): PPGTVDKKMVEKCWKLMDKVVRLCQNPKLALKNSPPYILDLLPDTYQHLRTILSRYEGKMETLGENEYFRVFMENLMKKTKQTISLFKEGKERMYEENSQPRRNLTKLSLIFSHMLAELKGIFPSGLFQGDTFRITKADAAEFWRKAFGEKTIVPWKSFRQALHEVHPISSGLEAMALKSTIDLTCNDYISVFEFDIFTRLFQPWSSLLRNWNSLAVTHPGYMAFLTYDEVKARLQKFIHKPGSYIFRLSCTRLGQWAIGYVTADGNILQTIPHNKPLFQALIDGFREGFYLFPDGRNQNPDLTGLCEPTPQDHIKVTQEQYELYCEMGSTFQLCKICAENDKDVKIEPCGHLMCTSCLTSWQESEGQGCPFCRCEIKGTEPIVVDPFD

[2] = target: Recombinant human Cbl-b (aa 36-427) (Homo sapiens, UniProt Q13191); assay: Cbl-b Biochemical Assay (TR-FRET); conditions: read-out: TR-FRET hCbl-b IC50
Chain of Recombinant human Cbl-b (aa 36-427) (Q13191 36-427): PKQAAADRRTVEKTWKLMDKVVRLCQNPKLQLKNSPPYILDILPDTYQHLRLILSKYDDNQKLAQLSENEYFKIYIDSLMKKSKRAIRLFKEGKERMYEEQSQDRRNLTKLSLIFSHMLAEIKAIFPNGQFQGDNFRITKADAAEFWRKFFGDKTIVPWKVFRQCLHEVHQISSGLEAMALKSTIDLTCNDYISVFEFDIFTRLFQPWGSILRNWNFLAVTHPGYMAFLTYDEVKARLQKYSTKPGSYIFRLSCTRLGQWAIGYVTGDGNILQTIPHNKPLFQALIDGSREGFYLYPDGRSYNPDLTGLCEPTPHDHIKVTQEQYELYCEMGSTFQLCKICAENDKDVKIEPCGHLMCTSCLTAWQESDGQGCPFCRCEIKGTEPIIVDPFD

Row | IC50 [1] [µM] | IC50 [2] [µM] | SMILES
1 | 10 to 50 | 10 to 50 | COC(=O)c1cc(OC)c2oc(-c3cccc([C@]4(c5nncn5C)C[C@@H](C)C4)c3)nc2c1 [AEA-1, Methyl 7-methoxy-2-{3-[(1r,3s)-3-methyl-1-(4-methyl-1,2,4-triazol-3-yl)cyclobutyl]phenyl}-1,3-benzoxazole-5-carboxylate]
2 | 10 to 50 | 10 to 50 | C[C@H](Cc1nncn1C)c1cccc(-c2nc3cccc(C(F)(F)F)c3[nH]2)c1 [ABD-9, 2-{3-[(2R)-1-(4-Methyl-1,2,4-triazol-3-yl)propan-2-yl]phenyl}-4-(trifluoromethyl)-3H-1,3-benzodiazole]
3 | 10 to 50 | 10 to 50 | COC(=O)c1ccc2[nH]c(-c3cc(-c4ccc(F)cc4-c4nncn4C)cc(C4CC4)n3)nc2c1 [AED-3, Methyl 2-(6-cyclopropyl-4-(4-fluoro-2-(4-methyl-4H-1,2,4-triazol-3-yl)phenyl)pyridin-2-yl)-1H-benzo[d]imidazole-5-carboxylate]
4 | 10 to 50 | 1 to 10 | Cn1cnnc1CC1(c2cccc(-c3nc4cccc(C(F)(F)F)c4s3)c2)COC1 [ABT-2, 2-(3-(3-((4-Methyl-4H-1,2,4-triazol-3-yl)methyl)oxetan-3-yl)phenyl)-7-(trifluoromethyl)benzo[d]thiazole]
5 | 1 to 10 | 0.2 to 1 | COC(=O)c1cc(C(F)(F)F)c2oc(-c3cccc(-c4ccc(F)cc4-c4nncn4C)c3)nc2c1 [Example X-1, Methyl 2-(4′-fluoro-2′-(4-methyl-4H-1,2,4-triazol-3-yl)-[1,1′-biphenyl]-3-yl)-7-(trifluoromethyl)benzo[d]oxazole-5-carboxylate]
6 | 10 to 50 | 10 to 50 | Cn1cnnc1-c1cc(F)ccc1-c1cccc(-c2nc3ccccc3o2)c1 [AR-2, 2-(4′-Fluoro-2′-(4-methyl-4H-1,2,4-triazol-3-yl)-[1,1′-biphenyl]-3-yl)benzo[d]oxazole]
7 | 10 to 50 | 10 to 50 | Cn1cnnc1-c1ccccc1-c1cccc(-c2nc3cc(C(=O)O)cc(C(F)(F)F)c3o2)c1 [Example H-1, 2-(2′-(4-Methyl-4H-1,2,4-triazol-3-yl)-[1,1′-biphenyl]-3-yl)-7-(trifluoromethyl)benzo[d]oxazole-5-carboxylic Acid]
8 | – | 10 to 50 | Cn1cnnc1CC1(c2cccc(-c3nc4cc(C(=O)Nc5nccn5C)cc(C(F)(F)F)c4[nH]3)c2)COC1 [ABZ-2, N-(1-Methyl-1H-imidazol-2-yl)-2-(3-(3-((4-methyl-4H-1,2,4-triazol-3-yl)methyl)oxetan-3-yl)phenyl)-7-(trifluoromethyl)-1H-benzo[d]imidazole-5-carboxamide]
9 | – | 10 to 50 | CCNc1cc(-c2c(-c3nncn3C)cnn2C)cc(-c2nc3ccc(C)c(C(F)(F)F)c3[nH]2)n1 [ACV-5, N-Ethyl-4-(1-methyl-4-(4-methyl-4H-1,2,4-triazol-3-yl)-1H-pyrazol-5-yl)-6-(6-methyl-7-(trifluoromethyl)-1H-benzo[d]imidazol-2-yl) pyridin-2-amine]
10 | – | 10 to 50 | Cn1cnnc1-c1ccccc1-c1cccc(-c2nc3ccc(F)c(C(F)(F)F)c3[nH]2)c1 [BC-1, 6-Fluoro-2-(2′-(4-methyl-4H-1,2,4-triazol-3-yl)-[1,1′-biphenyl]-3-yl)-7-(trifluoromethyl)-1H-benzo[d]imidazole]
11 | – | 10 to 50 | Cn1cnnc1-c1ccccc1-c1cccc(-c2nc3cc(C(=O)N4CCC5(CC5)C4)cc(C(F)(F)F)c3[nH]2)c1 [ACE-1, (2-(2′-(4-Methyl-4H-1,2,4-triazol-3-yl)-[1,1′-biphenyl]-3-yl)-7-(trifluoromethyl)-1H-benzo[d]imidazol-5-yl)(5-azaspiro[2.4]heptan-5-yl)methanone]
12 | – | 10 to 50 | Cn1cnnc1-c1cc(F)ccc1-c1cccc(-c2nc3ccccc3[nH]2)c1 [CA-2, 2-(4′-Fluoro-2′-(4-methyl-4H-1,2,4-triazol-3-yl)-[1,1′-biphenyl]-3-yl)-1H-benzo[d]imidazole]
13 | – | 10 to 50 | CCNc1cc(-c2ccccc2-c2nncn2C)cc(-c2nc3cccc(C(F)(F)F)c3o2)n1 [AS-12, N-ethyl-4-(2-(4-methyl-4H-1,2,4-triazol-3-yl)phenyl)-6-(7-(trifluoromethyl)benzo[d]oxazol-2-yl)pyridin-2-amine]
14 | – | 10 to 50 | Cn1cnnc1-c1ccccc1-c1cccc(-c2cc(C(F)(F)F)cn(C)c2=O)c1 [CG-4, 1-Methyl-3-(2′-(4-methyl-4H-1,2,4-triazol-3-yl)-[1,1′-biphenyl]-3-yl)-5-(trifluoromethyl)pyridin-2(1H)-one]
15 | – | 10 to 50 | CCNc1cc(-c2c(-c3nncn3C)cnn2C)cc(-c2nc3cccc(C(F)(F)F)c3o2)n1 [ACW-2, N-Ethyl-4-(1-methyl-4-(4-methyl-4H-1,2,4-triazol-3-yl)-1H-pyrazol-5-yl)-6-(7-(trifluoromethyl)benzo[d]oxazol-2-yl)pyridin-2-amine]
16 | – | 10 to 50 | Cn1cnnc1CC1(c2cccc(-c3nc4cccc(OC(F)(F)F)c4[nH]3)c2)COC1 [ABQ-2, 2-(3-(3-((4-Methyl-4H-1,2,4-triazol-3-yl)methyl)oxetan-3-yl)phenyl)-7-(trifluoromethoxy)-1H-benzo[d]imidazole]

Row | IC50 [1] [µM] | IC50 [2] [µM] | SMILES
17 | – | 10 to 50 | Cn1cnnc1CC1(c2cccc(-c3nc4cccc(C5CC5)c4[nH]3)c2)COC1 [ABG-3, 7-Cyclopropyl-2-(3-(3-((4-methyl-4H-1,2,4-triazol-3-yl)methyl)oxetan-3-yl)phenyl)-1H-benzo[d]imidazole]
18 | – | 10 to 50 | Cn1cnnc1CC1(c2cccc(-c3cc4cccc(C(F)(F)F)c4[nH]3)c2)COC1 [ACP-4, 2-(3-(3-((4-Methyl-4H-1,2,4-triazol-3-yl)methyl)oxetan-3-yl)phenyl)-7-(trifluoromethyl)-1H-indole]
19 | – | 10 to 50 | Cn1cnnc1CC1(c2cccc(-c3nc4cc(Br)cc(C(F)(F)F)c4[nH]3)c2)COC1 [ABE-2, 5-Bromo-2-(3-(3-((4-methyl-4H-1,2,4-triazol-3-yl)methyl)oxetan-3-yl)phenyl)-7-(trifluoromethyl)-1H-benzo[d]imidazole]
20 | – | 10 to 50 | CCNc1cc(-c2c(-c3nncn3C)cnn2C)cc(-c2nc3ccc(Br)c(C(F)(F)F)c3[nH]2)n1 [ACT-3, 6-(6-Bromo-7-(trifluoromethyl)-1H-benzo[d]imidazol-2-yl)-N-ethyl-4-(1-methyl-4-(4-methyl-4H-1,2,4-triazol-3-yl)-1H-pyrazol-5-yl) pyridin-2-amine]
21 | – | 10 to 50 | Cn1cnnc1CC1(c2cccc(-c3nc4cccc(Cl)c4[nH]3)c2)COC1 [ABM-2, 7-Chloro-2-(3-(3-((4-methyl-4H-1,2,4-triazol-3-yl)methyl)oxetan-3-yl)phenyl)-1H-benzo[d]imidazole]
22 | – | 10 to 50 | Cn1cnnc1-c1ccccc1-c1cccc(-c2nc3cccc(C(F)(F)F)c3[nH]2)c1 [ABW-1, 2-(2′-(4-Methyl-4H-1,2,4-triazol-3-yl)-[1,1′-biphenyl]-3-yl)-7-(trifluoromethyl)-1H-benzo[d]imidazole]
23 | – | 10 to 50 | Cn1cnnc1CC1(c2cccc(-c3nc4c(C(F)(F)F)cccc4s3)c2)COC1 [ABF-4, 2-(3-[3-[(4-Methyl-1,2,4-triazol-3-yl)methyl]oxetan-3-yl]phenyl)-4-(trifluoromethyl)-1,3-benzothiazole]
24 | – | 10 to 50 | Cn1cnnc1CC1(c2cccc(-c3cc(C(F)(F)F)cn(CCN4CC(O)C4)c3=O)c2)COC1 [ACH-5, 1-(2-(3-Hydroxyazetidin-1-yl)ethyl)-3-(3-(3-((4-methyl-4H-1,2,4-triazol-3-yl)methyl)oxetan-3-yl)phenyl)-5-(trifluoromethyl) pyridin-2(1H)-one]
25 | < 0.2 | – | N#CC1(CN)CCCC1 [AHN-1]
26 | – | 10 to 50 | CN1CCC(C(=O)Nc2ccc3nc(-c4cccc(-c5ccccc5-c5nncn5C)c4)[nH]c3c2C(F)(F)F)CC1 [BF-3, 1-Methyl-N-(2-(2′-(4-methyl-4H-1,2,4-triazol-3-yl)-[1,1′-biphenyl]-3-yl)-7-(trifluoromethyl)-1H-benzo[d]imidazol-6-yl)piperidine-4-carboxamide, Formic Acid]
27 | – | 10 to 50 | Cn1cnnc1-c1ccccc1-c1cccc(-c2cc(C(F)(F)F)c(C(=O)O)[nH]c2=O)c1 [CH-3, 5-(2′-(4-methyl-4H-1,2,4-triazol-3-yl)-[1,1′-biphenyl]-3-yl)-6-oxo-3-(trifluoromethyl)-1,6-dihydropyridine-2-carboxylic Acid]
28 | – | 10 to 50 | Cn1cnnc1-c1ccccc1-c1cccc(-c2nc3ccc(Br)c(C(F)(F)F)c3[nH]2)c1 [BB-1, 6-Bromo-2-(2′-(4-methyl-4H-1,2,4-triazol-3-yl)-[1,1′-biphenyl]-3-yl)-7-(trifluoromethyl)-1H-benzo[d]imidazole]
29 | – | 10 to 50 | Cn1cnnc1CCc1cccc(-c2nc3cccc(C(F)(F)F)n3n2)c1 [ABI-7, 2-(3-(2-(4-Methyl-4H-1,2,4-triazol-3-yl)ethyl)phenyl)-5-(trifluoromethyl)-[1,2,4]triazolo[1,5-a]pyridine]
30 | – | 10 to 50 | Cn1cnnc1CC1(c2cccc(-c3nc4cccc(Br)c4[nH]3)c2)COC1 [ABP-2, 4-Bromo-2-(3-[3-[(4-methyl-1,2,4-triazol-3-yl)methyl]oxetan-3-yl]phenyl)-1H-1,3-benzodiazole]
31 | – | 10 to 50 | Cn1cnnc1-c1cnn(C)c1-c1cccc(-c2nc3cccc(C(F)(F)F)n3n2)c1 [ABN-2, 4-Methyl-3-(1-methyl-5-{3-[5-(trifluoromethyl)-[1,2,4]triazolo[1,5-a]pyridin-2-yl]phenyl}pyrazol-4-yl)-1,2,4-triazole]
